“And” between values parts separate entries of the source, which are not always exact repeats. Equal entries are not always repeated. Where two headings read alike, the source gives them in different places. Bridge positions count the residues as written; N and C are the ends. Square brackets hold non-standard residues; d marks the D form. Peptide text beside a SMILES is read from it. * marks the point of attachment. X1 = C=CCN1CC[C@]23c4c5ccc(O)c4O[C@H]2[C@H](N*)CC[C@@]3(O)[C@H]1C5
Legend:
human MOR [1] = molecular target: T1, human MOR (Homo sapiens, UniProt P35372); experiment: [35S]GTPγS binding assay, CHO membranes; assay type: biochemical; details: [35S]GTPγS
T1 construct: expressed in transfected cells

human MOR [2] = molecular target: T1, human MOR; experiment: Schild regression vs DAMGO in [35S]GTPγS binding assay, CHO membranes; assay type: biochemical; details: for log (A'/A-1): Schild plot Figure S14d
mouse KOR, Gαi3 = mouse KOR, Gαi3 (Mus musculus, UniProt P33534); experiment: TRUPATH BRET G protein assay, Gαi3; assay type: cell-based; details: read-out: Emax (%) Gαi3
mouse KOR, GαoB = mouse KOR, GαoB (Mus musculus, UniProt P33534); experiment: TRUPATH BRET G protein assay, GαoB; assay type: cell-based; details: read-out: Emax (%) GαoB
mouse KOR, Gαz = mouse KOR, Gαz (Mus musculus, UniProt P33534); experiment: TRUPATH BRET G protein assay, Gαz; assay type: cell-based; details: Gαz subtype
male SWISS mice [3] = experiment: CFA-induced inflammatory hyperalgesia, Hargreaves test; assay type: in vivo, mouse; details: for CFA-induced inflammatory hyperalgesia (paw withdrawal latency): individual mice, listed as DNCP-ß-NalA (1)
Description: CFA-induced inflammatory hyperalgesia was induced in male SWISS mice (8–10 weeks old, 30–35 g body weight, n = 53 mice) by s.c. injection of 20 µL emulsified CFA (1 mg mL^−1) into the plantar surface of the right hindpaw under brief isoflurane anesthesia. Nociceptive testing was performed 72 h after inoculation with CFA. Hindpaws withdrawal latencies to thermal stimulation were measured using the Hargreaves test[84] with an analgesiometer (Ugo Basile S.R.L., Varese, Italy). Male mice were habituated in individual Plexiglas boxes positioned on a glass surface (Ugo Basile S.R.L., Varese, Italy) for three days prior to the inoculation with CFA. A movable infrared generator (30% intensity) located under the glass floor was focused onto the plantar surface of the hindpaw and switched on to heat. Onset of the radiant stimulus triggered a timer, which was stopped by subsequent paw movement. To prevent tissue damage, a cut-off time of 20 s was imposed. […] The paw withdrawal latencies to thermal stimulus was expressed in seconds.

male SWISS mice [4] = experiment: Paw thickness 60 min after formalin injection; assay type: in vivo, mouse; details: for Paw thickness: individual mice, listed as DNCP-ß-NalA (1)
Description: Sixty min after injection of formalin to male mice, maximal paw thickness of the right hind paw (i.e., formalin-injected hind paw) was measured using a digital micrometer (FixPoint, Vienna, Austria). Data are expressed in mm.

human KOR I135A [5] = molecular target: T2, human KOR I135A (Homo sapiens, UniProt P41145, I135A); assay type: cell-based; details: HEK-293T
T2 construct: FLAG; expressed in transfected cells; host or cells: HEK293 / HEK293T, transient

human KOR M142A [6] = molecular target: T3, human KOR M142A (Homo sapiens, UniProt P41145, M142A); assay type: cell-based; details: HEK-293T
T3 construct: FLAG; expressed in transfected cells; host or cells: HEK293 / HEK293T, transient

human KOR K227A [7] = molecular target: T4, human KOR K227A (Homo sapiens, UniProt P41145, K227A); assay type: cell-based; details: HEK-293T
T4 construct: FLAG; expressed in transfected cells; host or cells: HEK293 / HEK293T, transient

human KOR I316A = molecular target: T5, human KOR I316A (Homo sapiens, UniProt P41145, I316A); assay type: cell-based; details: HEK-293T
T5 construct: FLAG; expressed in transfected cells; host or cells: HEK293 / HEK293T, transient

human KOR Y320A = molecular target: T6, human KOR Y320A (Homo sapiens, UniProt P41145, Y320A); assay type: cell-based; details: HEK-293T
T6 construct: FLAG; expressed in transfected cells; host or cells: HEK293 / HEK293T, transient

human KOR F293A = molecular target: T7, human KOR F293A (Homo sapiens, UniProt P41145, F293A); assay type: cell-based; details: HEK-293T
T7 construct: FLAG; expressed in transfected cells; host or cells: HEK293 / HEK293T, transient

human KOR H304A [8] = molecular target: T8, human KOR H304A (Homo sapiens, UniProt P41145, H304A); assay type: cell-based; details: HEK-293T
T8 construct: FLAG; expressed in transfected cells; host or cells: HEK293T

human KOR Y312A = molecular target: T9, human KOR Y312A (Homo sapiens, UniProt P41145, Y312A); assay type: cell-based
T9 construct: FLAG; expressed in transfected cells; host or cells: HEK293T

human KOR I135A [9] = molecular target: T2, human KOR I135A; experiment: BRET β-arrestin-2 biosensor assay; assay type: cell-based
human KOR M142A [10] = molecular target: T3, human KOR M142A; experiment: BRET β-arrestin-2 biosensor assay; assay type: cell-based
human KOR K227A [11] = molecular target: T4, human KOR K227A; experiment: BRET β-arrestin-2 biosensor assay; assay type: cell-based
human KOR E209A = molecular target: T10, human KOR E209A (Homo sapiens, UniProt P41145, E209A); experiment: BRET β-arrestin-2 biosensor assay; assay type: cell-based; details: KOR E209A
T10 construct: FLAG; expressed in transfected cells; host or cells: HEK293 / HEK293T, transient

human KOR H304A [12] = molecular target: T8, human KOR H304A; experiment: BRET β-arrestin-2 biosensor assay; assay type: cell-based
human KOR [13] = molecular target: T11, human KOR (Homo sapiens, UniProt P41145); experiment: [35S]GTPγS binding assay, CHO membranes; assay type: biochemical; set-up: expressed in transfected cells
human KOR [14] = molecular target: T11, human KOR; experiment: cell-based; set-up: expressed in transfected cells; host or cells: HEK293, transient; details: HEK293, read-out: Emax β-arrestin-1 recruitment

T1 sequence (P35372 whole entry): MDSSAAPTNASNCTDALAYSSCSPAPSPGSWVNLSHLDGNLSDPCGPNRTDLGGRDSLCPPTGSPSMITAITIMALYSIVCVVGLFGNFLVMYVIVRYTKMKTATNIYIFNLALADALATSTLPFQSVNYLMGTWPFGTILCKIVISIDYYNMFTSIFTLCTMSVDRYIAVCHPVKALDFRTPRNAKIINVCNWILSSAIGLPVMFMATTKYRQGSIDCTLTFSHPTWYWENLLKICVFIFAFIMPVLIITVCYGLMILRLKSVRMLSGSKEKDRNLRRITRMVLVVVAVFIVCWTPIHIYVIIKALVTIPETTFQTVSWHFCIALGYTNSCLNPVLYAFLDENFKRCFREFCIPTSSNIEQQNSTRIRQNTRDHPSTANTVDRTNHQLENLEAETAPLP
T2 sequence (P41145 whole entry I135A): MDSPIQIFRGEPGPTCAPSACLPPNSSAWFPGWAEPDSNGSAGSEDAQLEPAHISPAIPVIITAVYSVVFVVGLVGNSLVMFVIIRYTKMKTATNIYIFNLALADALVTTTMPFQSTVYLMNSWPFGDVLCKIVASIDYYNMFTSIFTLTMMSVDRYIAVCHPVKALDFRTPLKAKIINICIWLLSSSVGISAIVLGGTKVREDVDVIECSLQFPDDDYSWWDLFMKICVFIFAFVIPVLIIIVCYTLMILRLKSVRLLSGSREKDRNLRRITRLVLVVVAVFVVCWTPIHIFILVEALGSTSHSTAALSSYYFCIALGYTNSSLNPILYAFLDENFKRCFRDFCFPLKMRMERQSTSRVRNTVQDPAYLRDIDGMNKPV
T4 sequence (P41145 whole entry K227A): as the sequence (P41145 whole entry I135A) above, with A135I, K227A counted along it
T11 sequence (P41145 whole entry): as the sequence (P41145 whole entry I135A) above, with A135I counted along it
T3 sequence (P41145 whole entry M142A): as the sequence (P41145 whole entry I135A) above, with A135I, M142A counted along it
T8 sequence (P41145 whole entry H304A): as the sequence (P41145 whole entry I135A) above, with A135I, H304A counted along it
T9 sequence (P41145 whole entry Y312A): as the sequence (P41145 whole entry I135A) above, with A135I, Y312A counted along it
T7 sequence (P41145 whole entry F293A): as the sequence (P41145 whole entry I135A) above, with A135I, F293A counted along it
T10 sequence (P41145 whole entry E209A): as the sequence (P41145 whole entry I135A) above, with A135I, E209A counted along it
T5 sequence (P41145 whole entry I316A): as the sequence (P41145 whole entry I135A) above, with A135I, I316A counted along it
mouse KOR, Gαi3, sequence (P33534 whole entry): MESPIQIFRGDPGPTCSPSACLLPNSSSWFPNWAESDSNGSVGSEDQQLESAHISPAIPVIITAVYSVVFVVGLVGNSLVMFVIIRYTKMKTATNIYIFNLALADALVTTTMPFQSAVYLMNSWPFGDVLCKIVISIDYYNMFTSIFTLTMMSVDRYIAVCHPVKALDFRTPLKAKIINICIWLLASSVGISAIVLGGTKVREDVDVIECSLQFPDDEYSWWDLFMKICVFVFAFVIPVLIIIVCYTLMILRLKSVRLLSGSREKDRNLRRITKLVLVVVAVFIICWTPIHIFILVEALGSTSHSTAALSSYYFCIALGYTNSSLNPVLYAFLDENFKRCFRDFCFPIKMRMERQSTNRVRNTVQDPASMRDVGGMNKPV
mouse KOR, Gαi3, sequence (P08754 2-354 partner): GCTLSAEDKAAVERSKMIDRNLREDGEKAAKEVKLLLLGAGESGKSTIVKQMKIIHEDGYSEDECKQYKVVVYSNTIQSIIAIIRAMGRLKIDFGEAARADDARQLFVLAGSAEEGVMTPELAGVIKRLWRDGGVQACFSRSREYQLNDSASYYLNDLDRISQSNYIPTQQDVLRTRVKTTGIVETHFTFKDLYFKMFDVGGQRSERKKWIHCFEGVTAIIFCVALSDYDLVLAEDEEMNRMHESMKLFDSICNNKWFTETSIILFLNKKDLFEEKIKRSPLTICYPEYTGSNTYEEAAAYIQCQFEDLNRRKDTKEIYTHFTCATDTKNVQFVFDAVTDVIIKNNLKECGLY
mouse KOR, GαoB, sequence (P33534 whole entry): as the sequence (P33534 whole entry) above
mouse KOR, GαoB, sequence (P09471 2-354 partner): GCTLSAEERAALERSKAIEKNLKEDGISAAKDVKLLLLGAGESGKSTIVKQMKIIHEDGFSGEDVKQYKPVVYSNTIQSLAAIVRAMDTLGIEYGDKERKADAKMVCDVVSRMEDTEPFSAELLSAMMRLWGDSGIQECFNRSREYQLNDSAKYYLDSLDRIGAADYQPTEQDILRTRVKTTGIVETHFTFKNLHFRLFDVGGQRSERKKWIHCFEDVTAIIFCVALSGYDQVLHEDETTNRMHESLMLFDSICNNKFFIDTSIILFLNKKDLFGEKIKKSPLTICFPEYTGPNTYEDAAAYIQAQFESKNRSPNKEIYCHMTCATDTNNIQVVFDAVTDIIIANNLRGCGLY
mouse KOR, Gαz, sequence (P33534 whole entry): as the sequence (P33534 whole entry) above
mouse KOR, Gαz, sequence (P19086 2-355 partner): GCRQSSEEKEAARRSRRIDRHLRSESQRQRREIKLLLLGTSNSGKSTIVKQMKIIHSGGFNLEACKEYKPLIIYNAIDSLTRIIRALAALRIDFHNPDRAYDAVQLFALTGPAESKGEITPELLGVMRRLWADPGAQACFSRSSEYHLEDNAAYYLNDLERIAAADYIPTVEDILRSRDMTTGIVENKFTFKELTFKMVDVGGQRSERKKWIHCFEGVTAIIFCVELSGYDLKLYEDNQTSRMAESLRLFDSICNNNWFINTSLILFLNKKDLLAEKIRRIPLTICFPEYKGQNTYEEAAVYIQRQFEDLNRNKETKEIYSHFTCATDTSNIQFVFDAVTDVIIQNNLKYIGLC
T6 sequence (P41145 whole entry Y320A): as the sequence (P41145 whole entry I135A) above, with A135I, Y320A counted along it

## C=CCN1CC[C@]23c4c5ccc(O)c4O[C@H]2[C@H](NC(=O)[C@@H](Cc2ccccc2)NC(=O)[C@@H](NC(=O)[C@@H]2CSCC(=O)N[C@@H](Cc4ccc(O)cc4)C(=O)N[C@@H](C)C(=O)N[C@H](Cc4ccc(O)cc4)C(=O)N[C@@H]([C@@H](C)O)C(=O)N[C@@H]([C@@H](C)O)C(=O)N2)[C@@H](C)O)CC[C@@]3(O)[C@H]1C5 [DNCP-β-NalA(1)] ({CH2CO}-YA[dY]TTCT[dF]-X1; thioether N-6)
Human MOR [1]
  EC50 (M) MOR: no stimulation up to 10 µM
Human MOR [2]; log B -7
  log (A'/A-1): 1.45
Human MOR [2]; log B -7.5
  log (A'/A-1): 0.36
Human MOR [2]; log B -8
  log (A'/A-1): -0.07
Human MOR [2]; from pA2
  average functional affinity: 13 nM
Human MOR [2]; vs DAMGO
  Schild linear regression slope: 1.5
Mouse KOR, Gαi3
  Emax: 77 ± 3%
Mouse KOR, GαoB
  Emax: 76 ± 6%
Mouse KOR, Gαz
  highest potency: picomolar range
Male SWISS mice [3]; 0.4 µmol/kg, time 0.5 h
  CFA-induced inflammatory hyperalgesia (paw withdrawal latency): 4.5 s and 3.8 s and 3.4 s and 4.3 s and 3.3 s and 4.6 s
Male SWISS mice [3]; 0.4 µmol/kg, time 1 h
  CFA-induced inflammatory hyperalgesia (paw withdrawal latency): 4.1 s and 5.3 s and 2.8 s and 3.2 s and 3 s and 2.4 s
Male SWISS mice [3]; 0.4 µmol/kg, time 2 h
  CFA-induced inflammatory hyperalgesia (paw withdrawal latency): 5.2 seconds and 3.9 seconds and 3.8 seconds and 3.4 seconds (2×) and 3.2 seconds
Male SWISS mice [3]; 0.4 µmol/kg, time 3 h
  CFA-induced inflammatory hyperalgesia (paw withdrawal latency): 4.6 seconds and 3.9 seconds and 4.1 seconds and 3.4 seconds (2×) and 2.9 seconds
Male SWISS mice [3]; 0.4 µmol/kg, time 4 h
  CFA-induced inflammatory hyperalgesia (paw withdrawal latency): 4 s and 3.6 s and 3.4 s and 3 s and 3.2 s and 2.7 s
Male SWISS mice [3]; 0.8 µmol/kg, time 0.5 h
  CFA-induced inflammatory hyperalgesia (paw withdrawal latency): 3.8 s and 4.7 s and 5.2 s and 5.9 s and 4 s and 4.4 s
Male SWISS mice [3]; 0.8 µmol/kg, time 1 h
  CFA-induced inflammatory hyperalgesia (paw withdrawal latency): 3.4 seconds and 3.5 seconds (2×) and 4.2 seconds and 3.8 seconds and 3.6 seconds
Male SWISS mice [3]; 0.8 µmol/kg, time 2 h
  CFA-induced inflammatory hyperalgesia (paw withdrawal latency): 2.7 seconds and 3.7 seconds and 3.9 seconds (2×) and 3.4 seconds and 4 seconds
Male SWISS mice [3]; 0.8 µmol/kg, time 3 h
  CFA-induced inflammatory hyperalgesia (paw withdrawal latency): 3.5 seconds (3×) and 3.1 seconds (2×) and 2.9 seconds
Male SWISS mice [3]; 0.8 µmol/kg, time 4 h
  CFA-induced inflammatory hyperalgesia (paw withdrawal latency): 2.6 seconds and 3.4 seconds and 3 seconds and 3.2 seconds and 3.1 seconds (2×)
Male SWISS mice [3]; 0.8 µmol/kg, time BL
  CFA-induced inflammatory hyperalgesia (paw withdrawal latency): 10.2 s and 11.3 s and 9.9 s and 10.1 s and 10.3 s
Male SWISS mice [3]; 1.9 µmol/kg, time 0.5 h
  CFA-induced inflammatory hyperalgesia (paw withdrawal latency): 4.2 s and 5.6 s and 7.4 s and 7.3 s and 7.2 s and 5.3 s
Male SWISS mice [3]; 1.9 µmol/kg, time 1 h
  CFA-induced inflammatory hyperalgesia (paw withdrawal latency): 3.9 seconds and 4.5 seconds (2×) and 6.6 seconds and 5 seconds and 3.5 seconds
Male SWISS mice [3]; 1.9 µmol/kg, time 2 h
  CFA-induced inflammatory hyperalgesia (paw withdrawal latency): 2.9 s and 4.1 s and 4.4 s and 3.4 s and 3.5 s and 3.8 s
Male SWISS mice [3]; 1.9 µmol/kg, time 3 h
  CFA-induced inflammatory hyperalgesia (paw withdrawal latency): 3.5 seconds (2×) and 3.8 seconds and 4.4 seconds and 3.3 seconds and 2.9 seconds
Male SWISS mice [3]; 1.9 µmol/kg, time 4 h
  CFA-induced inflammatory hyperalgesia (paw withdrawal latency): 2.5 seconds and 2.6 seconds and 2.7 seconds (2×) and 2.8 seconds and 3.5 seconds
Male SWISS mice [3]; 1.9 µmol/kg, time BL
  CFA-induced inflammatory hyperalgesia (paw withdrawal latency): 10.6 s and 9.8 s and 10 s and 10.4 s and 10.3 s
Male SWISS mice [3]; after drug administration
  return of thermal nociceptive thresholds to basal values: 2 h
Male SWISS mice [3]; s.c.
  time of peak effect: 15 min
Male SWISS mice [3]; s.c., male mice
  effect on thermal sensitivity / paw withdrawal latencies: significantly reduced thermal sensitivity
Male SWISS mice [4]; 0.8 µmol/kg
  Paw thickness: 3.47 mm and 4.51 mm and 3.9 mm and 4.44 mm and 3.64 mm and 4.36 mm
Male SWISS mice [4]; 1.9 µmol kg^−1 s.c.
  reduction of paw thickness vs saline: 12 ± 2%
Male SWISS mice [4]; 1.9 µmol/kg
  Paw thickness: 4.04 mm and 4.14 mm and 3.53 mm and 3.7 mm and 3.82 mm
Male SWISS mice [4]; 3.8 µmol kg^−1 s.c.
  reduction of paw thickness vs saline: 17 ± 3%
Male SWISS mice [4]; nor-BNI 13.6 µmol kg^−1 s.c. pretreatment
  antagonism of anti-inflammatory effect by nor-BNI: significantly reversed by pre-treatment with nor-BNI
Human KOR I135A [5]
  Emax: 45.8 ± 1.95%
Human KOR M142A [6]
  Emax: 69.4 ± 1.97%
Human KOR K227A [7]
  Emax: 47.9 ± 1.19%
Human KOR I316A
  Emax: 85.75 ± 0.72%
Human KOR Y320A
  Emax: 86.8 ± 2.05%
Human KOR F293A
  Emax: 85.55 ± 0.78%
Human KOR H304A [8]
  Emax: 92.57 ± 0.43%
Human KOR Y312A; HEK-293T, KOR Y312A
  Emax: 82.46 ± 0.65%
Human KOR Y312A; Y312A vs WT
  loss of potency in G protein activation: 4 fold
Human KOR I135A [9]; Log [ligand] (M) -5, single replicates
  BRET-βarresin2 recruitment: 0.1789 and 0.1779 and 0.1349 and 0.1369 (2×)
Human KOR I135A [9]; Log [ligand] (M) -6, single replicates
  BRET-βarresin2 recruitment: 0.1739 and 0.1699 and 0.1669 and 0.1229 and 0.1319 and 0.1359
Human KOR I135A [9]; Log [ligand] (M) -7, single replicates
  BRET-βarresin2 recruitment: 0.1699 (2×) and 0.1609 and 0.1309 and 0.1289 and 0.1299
Human KOR I135A [9]; Log [ligand] (M) -8, single replicates
  BRET-βarresin2 recruitment: 0.1669 and 0.1659 and 0.1729 and 0.1269 and 0.1239 and 0.1349
Human KOR I135A [9]; Log [ligand] (M) -9, single replicates
  BRET-βarresin2 recruitment: 0.1669 (2×) and 0.1649 and 0.1249 and 0.1239 and 0.1259
Human KOR I135A [9]; Log [ligand] (M) -10, single replicates
  BRET-βarresin2 recruitment: 0.1689 and 0.1639 (2×) and 0.1279 and 0.1309 and 0.1339
Human KOR I135A [9]; Log [ligand] (M) -11, single replicates
  BRET-βarresin2 recruitment: 0.1699 and 0.1669 and 0.1689 and 0.1249 and 0.1279 (2×)
Human KOR I135A [9]; Log [ligand] (M) -12, single replicates
  BRET-βarresin2 recruitment: 0.1519 and 0.1569 (2×) and 0.1249 (2×) and 0.1259
Human KOR M142A [10]
  Emax: 91.7 ± 11.6%
Human KOR K227A [11]
  Emax: 16.9 ± 2.26%
Human KOR E209A
  Emax: 87.3 ± 1.31%
Human KOR H304A [12]
  Emax: 34.5 ± 1.18%
Human KOR [13]
  Emax: 83%
Human KOR [14]
  Emax: 30%

Reference: article PMC10698194 (Nature Communications, 2023)
